Test results as given in patent US20250092064A1, “BENZOTRIAZOLE COMPOUND” (DAIICHI SANKYO COMPANY, LIMITED, priority 2022, published 2025).
Each block holds one compound with its values, some of them ahead of it.

Legend:
[1] = target: binding between Nrf2 and Keap1 (Homo sapiens (Human), UniProt Q14145); test: FP assay (in vitro): inhibition of Nrf2-Keap1 binding by fluorescence polarization; conditions: GST-fused human Keap1 (325-642) 20 nM, FITC-labeled Nrf2 peptide 10 nM, 2 hr at room temperature
binding between Nrf2 and Keap1, sequence (Q14145 325-624 limits assumed): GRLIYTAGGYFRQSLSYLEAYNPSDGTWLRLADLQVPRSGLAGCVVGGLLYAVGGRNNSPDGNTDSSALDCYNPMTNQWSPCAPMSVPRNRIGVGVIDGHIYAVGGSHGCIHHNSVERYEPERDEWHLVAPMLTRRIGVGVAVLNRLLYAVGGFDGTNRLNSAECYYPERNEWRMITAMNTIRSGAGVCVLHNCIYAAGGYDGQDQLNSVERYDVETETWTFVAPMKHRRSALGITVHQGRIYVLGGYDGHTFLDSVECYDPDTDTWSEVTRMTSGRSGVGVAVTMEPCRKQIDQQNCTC

[2] = system: NQO1 activity in Hepa1c1c7 cells; test: NAD(P)H: quinone oxidoreductase-1 (NQO1) enzyme induction assay (in vitro); type: cell-based, mouse; conditions: Mus musculus, Hepa-1c1c7, NQO1 activity with 400 nM test compound as a ratio from the base without compound, about 48 hr
Experimental: The NQO1 assay was performed based on a previous report (Methods in Enzymology 2004; 382: 243-258). Hepa1c1c7 cells (mouse hepatocyte cell line, ATCC, cat. no. CRL-2026) were cultured in D-MEM medium containing 10% FBS and 1% penicillin/streptomycin (5% CO2, 37° C.), and seeded into 96-well plates (Corning REF. 353072) at 1×10^4 cells/well. A portion of the wells were prepared with medium only for background measurement without seeding cells. The next day, 400 nM of the test compound (0.004% of the final concentration in DMSO) dissolved in DMSO was added thereto, and the wells were incubated for about 48 hr. A well without adding the test compound was prepared for base activity assay in part. […] After the medium was removed, 50 μL of the cell lysate was added and incubated at 37° C. for 10 minutes, followed by shaking at room temperature for 10 minutes. 200 μL of reaction solution was added thereto, and allowed to stand for 5 minutes at room temperature. 50 μL of the stop solution was added thereto, and absorbance was measured at 610 nm on a SpectraMax PLUS384 (Molecular devices) or […] Pharma Biomedical). The test results were analyzed in Excel, and the NQO1 activity upon addition of 400 nM of test compound was calculated as a ratio from the base without the compound. NQO1 activity ratio when test compound is added=(absorbance when test compound is added-absorbance of medium only)/(absorbance without addition of compound-absorbance of medium only) [numerical formula 2] The results of each test compound in this test are shown in the following Table 2 (A:5<NQO1 activity ratio, B:3<NQO1 activity ratio≤5).

SMILES: CC[C@@H]1CN(Cc2cc([C@@H](CC(=O)O)c3cc(OC(F)(F)F)c4c(nnn4C)c3C)cc3ccsc23)S(=O)(=O)c2cc(Cl)cnc2O1 [Example 45, (3R)-3-(7-{[(4R)-8-Chloro-4-ethyl-1,1-dioxido-3,4-dihydro-2H-pyrido[2,3-b][1,4,5]oxathiazepin-2-yl]methyl}-1-benzothiophen-5-yl)-3-[1,4-dimethyl-7-(trifluoromethoxy)-1H-benzotriazol-5-yl]propanoic acid]
IC50 [1]: ≤ 10 nM | fold induction at 0.4 µM [2]: > 5

SMILES: CC[C@@H]1CN(Cc2cc([C@@H](CC(=O)O)c3ccc4c(nnn4C)c3C)cc3ccsc23)S(=O)(=O)c2cc(Cl)c(F)cc2O1 [Example 22, (3R)-3-(7-{[(4R)-8-Chloro-4-ethyl-7-fluoro-1,1-dioxido-3,4-dihydro-2H-5,1,2-benzoxathiazepin-2-yl]methyl}-1-benzothiophen-5-yl)-3-(1,4-dimethyl-1H-benzotriazol-5-yl)propanoic acid]
IC50 [1]: ≤ 10 nM | fold induction at 0.4 µM [2]: > 5

SMILES: CC[C@@H]1CN(Cc2cc(C(CC(=O)O)c3ccc4c(nnn4C)c3C)cc3c2CCC3)S(=O)(=O)c2ccc(C)nc2O1 (stereo partly drawn) [Example 11, 3-(1,4-Dimethyl-1H-benzotriazol-5-yl)-3-(7-{[(4R)-4-ethyl-7-methyl-1,1-dioxido-3,4-dihydro-2H-pyrido[2,3-b][1,4,5]oxathiazepin-2-yl]methyl}-2,3-dihydro-1H-inden-5-yl)propanoic acid]
IC50 [1]: 10 to 30 nM | fold induction at 0.4 µM [2]: > 5

SMILES: CC[C@@H]1CN(Cc2cc([C@@H](CC(=O)O)c3cc(OC(F)(F)F)c4c(nnn4C)c3C)cc3c2CCC3)S(=O)(=O)c2cc(Cl)cnc2O1 [Example 101, (3R)-3-(7-{[(4R)-8-Chloro-4-ethyl-1,1-dioxido-3,4-dihydro-2H-pyrido[2,3-b][1,4,5]oxathiazepin-2-yl]methyl}-2,3-dihydro-1H-inden-5-yl)-3-[1,4-dimethyl-7-(trifluoromethoxy)-1H-benzotriazol-5-yl]propanoic acid]
IC50 [1]: ≤ 10 nM | fold induction at 0.4 µM [2]: > 5

SMILES: CC[C@@H]1CN(Cc2cc(C(CC(=O)O)c3ccc4c(nnn4C)c3C)cc3c2CCC3)S(=O)(=O)c2cc(C)cnc2O1 (stereo partly drawn) [Example 10, 3-(1,4-Dimethyl-1H-benzotriazol-5-yl)-3-(7-{[(4R)-4-ethyl-8-methyl-1,1-dioxido-3,4-dihydro-2H-pyrido[2,3-b][1,4,5]oxathiazepin-2-yl]methyl}-2,3-dihydro-1H-inden-5-yl)propanoic acid]
IC50 [1]: 10 to 30 nM | fold induction at 0.4 µM [2]: > 5

SMILES: CC[C@@H]1CN(Cc2cc([C@@H](CC(=O)O)c3ccc4c(nnn4C)c3C)cc3c2CCC3)S(=O)(=O)c2cc(C)cnc2O1 [Example 47, (3R)-3-(1,4-Dimethyl-1H-benzotriazol-5-yl)-3-(7-{[(4R)-4-ethyl-8-methyl-1,1-dioxido-3,4-dihydro-2H-pyrido[2,3-b][1,4,5]oxathiazepin-2-yl]methyl}-2,3-dihydro-1H-inden-5-yl)propanoic acid]
IC50 [1]: ≤ 10 nM | fold induction at 0.4 µM [2]: 3 to 5

SMILES: CC[C@@H]1CN(Cc2cc([C@H](CC(=O)O)c3cc(Cl)c4c(nnn4C)c3C)cc3c2CCC3)S(=O)(=O)c2cc(Cl)cnc2O1 [Example 96, (3S)-3-(7-Chloro-1,4-dimethyl-1H-benzotriazol-5-yl)-3-(7-{[(4R)-8-chloro-4-ethyl-1,1-dioxido-3,4-dihydro-2H-pyrido[2,3-b][1,4,5]oxathiazepin-2-yl]methyl}-2,3-dihydro-1H-inden-5-yl)propanoic acid]
IC50 [1]: ≤ 10 nM | fold induction at 0.4 µM [2]: > 5

SMILES: CC[C@@H]1CN(Cc2cc([C@H](CC(=O)O)c3cc(OC(F)(F)F)c4c(nnn4C)c3C)cc3c2CCC3)S(=O)(=O)c2cc(Cl)cnc2O1 [Example 100, (3S)-3-(7-{[(4R)-8-Chloro-4-ethyl-1,1-dioxido-3,4-dihydro-2H-pyrido[2,3-b][1,4,5]oxathiazepin-2-yl]methyl}-2,3-dihydro-1H-inden-5-yl)-3-[1,4-dimethyl-7-(trifluoromethoxy)-1H-benzotriazol-5-yl]propanoic acid]
IC50 [1]: ≤ 10 nM | fold induction at 0.4 µM [2]: > 5

Now from value to compound, other results behind:

IC50 [1]: ≤ 10 nM
SMILES: CC[C@@H]1CN(Cc2cc([C@H](CC(=O)O)c3cc(Cl)c4c(nnn4C)c3C)cc3ccsc23)[C@@H](C)c2ncccc2O1 [Example 64, (3S)-3-(7-Chloro-1,4-dimethyl-1H-benzotriazol-5-yl)-3-(7-{[(2R,5S)-2-ethyl-5-methyl-2,3-dihydropyrido[2,3-f][1,4]oxazepin-4(5H)-yl]methyl}-1-benzothiophen-5-yl)propanoic acid]
fold induction at 0.4 µM [2]: 3 to 5

IC50 [1]: 30 to 100 nM
SMILES: CC[C@@H]1CN(Cc2cc(C(CC(=O)O)c3ccc4c(nnn4C)c3C)cc3ccsc23)[C@H](C)c2ncccc2O1 (stereo partly drawn) [Example 73, 3-(1,4-Dimethyl-1H-benzotriazol-5-yl)-3-(7-{[(2R,5R)-2-ethyl-5-methyl-2,3-dihydropyrido[2,3-f][1,4]oxazepin-4(5H)-yl]methyl}-1-benzothiophen-5-yl)propanoic acid]
fold induction at 0.4 µM [2]: > 5

IC50 [1]: 30 to 100 nM
SMILES: CC[C@@H]1CN(Cc2cc(C(CC(=O)O)c3cc(C4CC4)c4c(nnn4C)c3C)cc3ccoc23)[C@@H](C)c2ncccc2O1 (stereo partly drawn) [Example 109, 3-(7-Cyclopropyl-1,4-dimethyl-1H-benzotriazol-5-yl)-3-(7-{[(2R,5S)-2-ethyl-5-methyl-2,3-dihydropyrido[2,3-f][1,4]oxazepin-4(5H)-yl]methyl}-1-benzofuran-5-yl)propanoic acid]
fold induction at 0.4 µM [2]: > 5

IC50 [1]: ≤ 10 nM
SMILES: CC[C@@H]1CN(Cc2cc([C@@H](CC(=O)O)c3cc(Cl)c4c(nnn4C)c3C)cc3ccsc23)S(=O)(=O)c2cc(Cl)cnc2O1 [Example 31, (3R)-3-(7-Chloro-1,4-dimethyl-1H-benzotriazol-5-yl)-3-(7-{[(4R)-8-chloro-4-ethyl-1,1-dioxido-3,4-dihydro-2H-pyrido[2,3-b][1,4,5]oxathiazepin-2-yl]methyl}-1-benzothiophen-5-yl)propanoic acid]
fold induction at 0.4 µM [2]: > 5

IC50 [1]: 30 to 100 nM
SMILES: CC[C@@H]1CN(Cc2cc(C(CC(=O)O)c3cc(C4CC4)c4c(nnn4C)c3C)cc3ccsc23)S(=O)(=O)c2cc(Cl)cnc2O1 (stereo partly drawn) [Example 49, 3-(7-{[(4R)-8-Chloro-4-ethyl-1,1-dioxido-3,4-dihydro-2H-pyrido[2,3-b][1,4,5]oxathiazepin-2-yl]methyl}-1-benzothiophen-5-yl)-3-(7-cyclopropyl-1,4-dimethyl-1H-benzotriazol-5-yl)propanoic acid]
fold induction at 0.4 µM [2]: > 5

IC50 [1]: ≤ 10 nM
SMILES: CC[C@@H]1CN(Cc2cc([C@@H](c3ccc4c(nnn4C)c3C)C(C)(C)C(=O)O)cc3c2CCC3)[C@@H](C)c2ncccc2O1 [Example 89, (3S)-3-(1,4-Dimethyl-1H-benzotriazol-5-yl)-3-(7-{[(2R,5S)-2-ethyl-5-methyl-2,3-dihydropyrido[2,3-f][1,4]oxazepin-4(5H)-yl]methyl}-2,3-dihydro-1H-inden-5-yl)-2,2-dimethylpropanoic acid]
fold induction at 0.4 µM [2]: > 5

IC50 [1]: ≤ 10 nM
SMILES: CC[C@@H]1CN(Cc2cc(C(CC(=O)O)c3ccc4c(nnn4C)c3C)cc3c2CCC3)S(=O)(=O)c2ccccc2O1 (stereo partly drawn) [Example 12, 3-(1,4-Dimethyl-1H-benzotriazol-5-yl)-3-(7-{[(4R)-4-ethyl-1,1-dioxido-3,4-dihydro-2H-5,1,2-benzoxathiazepin-2-yl]methyl}-2,3-dihydro-1H-inden-5-yl)propanoic acid]
fold induction at 0.4 µM [2]: > 5
